# Measured values published in ChEMBL document CHEMBL5030517, “6-Halopyridylmethylidene Penicillin-Based Sulfones Efficiently Inactivate the Natural Resistance of Pseudomonas aeruginosa to β-Lactam Antibiotics” (J Med Chem, 2021).
# Assay: Inhibition beta lactamase PDC-1 in Pseudomonas aeruginosa PAO1 using nitrocefin as substrate measured by 96 well microtitre plate
row,SMILES,IC50
1,CC1(C)[C@H](C(=O)O)N2C(=O)C[C@H]2S1(=O)=O [SULBACTAM],4.37 µM
2,C[C@]1(Cn2ccnn2)[C@H](C(=O)O)N2C(=O)C[C@H]2S1(=O)=O [TAZOBACTAM],0.844 µM
3,O=C(O)[C@H]1/C(=C/CO)O[C@@H]2CC(=O)N21 [CLAVULANIC ACID],> 200 µM
